According to paper PMC12538274, “Paltusotine versus octreotide: different effects on radioligand uptake in neuroendocrine tumours” (Endocrine Oncology, 2025):
Where two headings read alike, the source gives them in different places.

How the values were obtained:
[1] = cited from earlier work
[2] = test system: NCI-H727 cells (human bronchopulmonary NET); assay: Cell Titer Blue cell viability assay, NCI-H727; type: cell-based; conditions: 72 h, vs DMSO control
Method: (§1) The BON-1 (human panNET; Prof. R Göke, University of Marburg, Germany), NCI-H727 (human bronchopulmonary NET; ATCC, USA) and QGP-1 cell lines (human panNET; JCRB Cell Bank, Japan) were cultured as previously described ([15]). Moreover, a stable hSSTR2 over-expressing BON-1 cell clone (BON-1 SSTR2) was generated as previously described ([16], [17]).
(§2) GEP-NET cell lines and primary cultures were treated for 72 h with either paltusotine or octreotide, and dimethyl sulfoxide (DMSO) was used as control. Cell Titer Blue® cell viability assay (Promega, USA) was then performed as previously described ([15], [21]). Each experiment included 3–4 samples per drug concentration and patient. Cell line experiments were performed at least three times.

[3] = target: T1, hSSTR2 (stable hSSTR2 over-expressing BON-1 cells, BON-1 SSTR2) (Homo sapiens, UniProt P30874); assay: 18F-SiTATE uptake assay; type: cell-based
T1 construct: expressed in transfected cells

pituitary tumour cells = test system: pituitary tumour cells; parameters: method as in PMID 36810324; conditions: compared to octreotide; cited from earlier work
[4] = test system: patient-derived GEP-NET primary cultures; assay: Cell Titer Blue cell viability assay, patient-derived GEP-NET primary cultures; type: cell-based, human; conditions: 72 h, n = 5
Text: Fresh patient-derived GEP-NET primary cultures were established from surgically-derived patient tumours as previously described ([18]). […] Eleven of these were metastatic GEP-NETs, including six […] = 2 with the carcinoid syndrome) and eight […]. The use of primary tumour tissue as part of NeoExNET was approved by the Ethics Committee of LMU Munich (project number 152-10) and by the Cantonal Ethics Committee Zurich (reference number BASEC 2017-00950). […] GEP-NET cell lines and primary cultures were treated for 72 h with either paltusotine or octreotide, and dimethyl sulfoxide (DMSO) was used as control. Cell Titer Blue® cell viability assay (Promega, USA) was then performed as previously described ([15], [21]). […] Cell line experiments were performed at least three times.

SSTR2 = conditions: read-out: SSTR2 binding affinity, IC50; cited from earlier work
[5] = test system: QGP-1 cells (human panNET); assay: Cell Titer Blue cell viability assay, QGP-1; type: cell-based; conditions: 72 h, vs DMSO control
Method: as §1, §2

[6] = cited from earlier work; remark: listed apart in the source
Text: Paltusotine is currently being investigated in a randomised phase 2 trial in NET patients with the carcinoid syndrome (NCT05361668), with promising preliminary results ([13]), and a phase 3 trial is currently being planned ([14]). […] Recently, paltusotine received FDA approval for the treatment of patients with acromegaly ([11], [12]).

[7] = test system: BON-1 cells (human panNET); assay: Cell Titer Blue cell viability assay, BON-1; type: cell-based; conditions: 72 h, vs DMSO control
Method: as §1, §2

[8] = test system: SSTR2 on the cell surface of HEK293 cells; parameters: method as in PMID 36810324; conditions: cited from earlier work
Text: (§3) While G-protein (GP)- and arrestin (ARRB)-mediated effects are induced by full SSTR2 agonists such as octreotide ([35]), biased agonists with GP-mediated effects but diminished ARRB signalling have been reported ([35]). Arrestins play an important role in SSTR internalisation and recycling/degradation ([35]). Zhao et al. compared the molecular binding structure of octreotide and paltusotine to SSTR2 and their molecular signalling, examined β-arrestin recruitment and SSTR2 internalisation/loss of SSTR2 expression on the cell surface of HEK293 cells ([34]).

[9] = test system: β-arrestin recruitment (SSTR2, HEK293 cells); parameters: method as in PMID 36810324; conditions: cited from earlier work
Text: as §3

[10] = test system: NET patients with the carcinoid syndrome; conditions: preliminary results, phase 2, NET patients with carcinoid syndrome; cited from earlier work
Text: A newly developed, orally-bioavailable non-peptide SSTR2 agonist, paltusotine, might simplify SSA therapy and is taken orally once daily ([10]). Paltusotine recently received FDA approval for acromegaly treatment based on data from two phase 3 trials ([…]-1 and […]-2/NCT05192382) ([11], [12]).

BON-1 SSTR2 cells = assay: Cell Titer Blue cell viability assay, BON-1 SSTR2; type: cell-based, human; conditions: 72 h, vs DMSO control
[11] = test system: forskolin-stimulated cAMP accumulation; parameters: method as in PMID 36810324; conditions: read-out: Inhibition of forskolin-stimulated cAMP accumulation, EC50; cited from earlier work
SSTR1/3/4/5 = test system: SSTR1/3/4/5; parameters: method as in PMID 11980628; conditions: cited from earlier work
Text: However, according to current guidelines as well as the FDA/EMA labelling instructions regarding Lutathera®, SSA therapy needs to be discontinued before PRRT ([7], [8], [9]). These recommendations stem from the fact that both SSAs and PRRT target the SSTR2. […] Moreover, long-acting octreotide and prolonged-release lanreotide maintain platea ...

T1 sequence (P30874 whole entry): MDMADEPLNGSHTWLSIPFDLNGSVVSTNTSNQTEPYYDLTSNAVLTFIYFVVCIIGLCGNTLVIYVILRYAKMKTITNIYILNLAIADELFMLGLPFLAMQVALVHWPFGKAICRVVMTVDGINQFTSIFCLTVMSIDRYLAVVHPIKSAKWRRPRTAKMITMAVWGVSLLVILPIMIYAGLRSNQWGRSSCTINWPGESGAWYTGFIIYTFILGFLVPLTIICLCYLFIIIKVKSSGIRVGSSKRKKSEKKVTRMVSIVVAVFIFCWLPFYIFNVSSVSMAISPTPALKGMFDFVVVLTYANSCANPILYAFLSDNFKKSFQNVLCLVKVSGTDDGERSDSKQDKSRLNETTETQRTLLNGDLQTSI

For C[C@@H](O)[C@@H]1NC(=O)[C@H](CCCCN)NC(=O)[C@@H](Cc2c[nH]c3ccccc23)NC(=O)[C@H](Cc2ccccc2)NC(=O)[C@@H](NC(=O)[C@H](N)Cc2ccccc2)CSSC[C@@H](C(=O)N[C@H](CO)[C@@H](C)O)NC1=O [octreotide], the Plasma concentrations ([1]; subcutaneous injections, humans) is given as “up to 4 nM”.
With N#Cc1cccc(-c2ccc3ncc(-c4cc(F)cc(F)c4)c(N4CCC(N)CC4)c3c2)c1O [paltusotine] the “Effect on cell viability” value ([2]; NCI-H727, 4 nM) was “overall no anti-tumour effects”, the “Effect on cell viability” value ([2]; NCI-H727, 400 nM) was “not found” and the “Effect on 18F-SiTATE radioligand uptake compared to the unblocked control” value ([3]; 73–254 nM (1,000×) and 146–508 nM (2,000×)) was “no significant effects on cellular uptake”. The “Effect on 18F-SiTATE radioligand uptake compared to the unblocked control” value ([3]; low, clinically-relevant concentrations 7.3–25.4 nM (100×)) was “no influence on radioligand binding compared to the unblocked control”, the Apoptotic rate (pituitary tumour cells) was “increased apoptotic rate compared to octreotide” and the “Overall effect on cell viability” value ([4]; 100 nM) was “overall slight anti-tumour effects”. For the same compound, the “Overall effect on cell viability” value ([4]; 500 nM) was “overall slight anti-tumour effects”, the IC50 (SSTR2) was 0.25 nM and the “Effect on cell viability” value ([5]; QGP-1, 4 nM) was “overall no anti-tumour effects”. For the same compound, the “Effect on cell viability” value ([5]; QGP-1, 400 nM) was “slight, significant decrease in cell viability”, the Oral bioavailability [6] was “good oral bioavailability” and the “Effect on cell viability” value ([7]; BON-1, 4 nM) was “overall no anti-tumour effects”. The “Effect on cell viability” value ([7]; BON-1, 400 nM) was “slight, significant increase in viability”, the SSTR2 internalisation/desensitisation [8] was “less SSTR2 internalisation/desensitisation” and the β-arrestin recruitment [9] was “much lower β-arrestin recruitment”. The Plasma concentrations ([1]; in vivo) was 22 to 406 nM, the Symptom control [10] was “improved symptom control” and the Tolerability [10] was “good tolerability”. For the same compound, the “Effect on cell viability” value (BON-1 SSTR2 cells; BON-1 SSTR2, 4 nM) was “overall no anti-tumour effects”, the “Effect on cell viability” value (BON-1 SSTR2 cells; BON-1 SSTR2, 400 nM) was “not found” and the EC50 [11] was 2.08 ± 1.39 nM.
For lanreotide, the “Binding affinity to SSTR1/3/4/5” value (SSTR1/3/4/5) is given as “reduced or no binding affinity” and the IC50 (SSTR2) is given as 0.54 nM.
For somatostatin, the IC50 (SSTR2) is listed as 0.15 nM.
